Source: patent US11479536B1 (King Abdulaziz University, priority 2022, dated 2022)

Legend:
AMPK (phospho-protein) = experiment: Phosphoproteome array test, phospho-AMPK signal in lysates of treated HL-60 cells; type: cell-based, human
Experimental: The phosphorylation profile of AMPK kinase (among other 37 kinases) was performed using the Proteome Profiler Human Phospho-Kinase Antibody Array Kit by R&D Systems (Minneapolis, Minn., USA) according to the protocol. Briefly, the total cellular protein was extracted using the Lysis buffer and was quantified using Bio-Rad DC Protein Assay kit (Hercules, Calif., USA). Nitrocellulose membrane set (A&B), pre-spotted with kinase-specific capture antibodies, were first blocked with Array Buffer-1 at RT for 30 min on a rocking platform shaker. Approximately 600 μg of protein concentrate was diluted in the buffer provided and was added onto the membrane set, and the membranes were incubated overnight at 4° C. in an 8-well plate. Subsequently, membranes were washed with Wash Buffer and incubated with appropriate Detection Antibody cocktails for 2 h at RT. Streptavadin-HRP (1:2000) was added onto membranes and incubated for 30 min at RT. Membranes were washed, and Chemiluminescent Detection Reagents 1&2 were applied in equal volumes for detection. The signals were detected on C-DiGit® Blot Scanner (LI-COR, Odyssey Imaging Systems, Lincoln, Nebr., USA) using Image Studio 5.0 software.

AMPK (A1/B1/G2) = molecular target: T1, AMPK (A1/B1/G2) (Homo sapiens, UniProt Q13131+Q9UGJ0+Q9Y478); experiment: Cell-free AMPK inhibition assay, AMPK (A1/B1/G2) Kinase Enzyme system; type: biochemical; settings: recombinant full-length human AMPK
T1 construct: This system includes a recombinant full-length human AMPK enzyme; purchased Promega
T1 sequence (Q13131 whole entry): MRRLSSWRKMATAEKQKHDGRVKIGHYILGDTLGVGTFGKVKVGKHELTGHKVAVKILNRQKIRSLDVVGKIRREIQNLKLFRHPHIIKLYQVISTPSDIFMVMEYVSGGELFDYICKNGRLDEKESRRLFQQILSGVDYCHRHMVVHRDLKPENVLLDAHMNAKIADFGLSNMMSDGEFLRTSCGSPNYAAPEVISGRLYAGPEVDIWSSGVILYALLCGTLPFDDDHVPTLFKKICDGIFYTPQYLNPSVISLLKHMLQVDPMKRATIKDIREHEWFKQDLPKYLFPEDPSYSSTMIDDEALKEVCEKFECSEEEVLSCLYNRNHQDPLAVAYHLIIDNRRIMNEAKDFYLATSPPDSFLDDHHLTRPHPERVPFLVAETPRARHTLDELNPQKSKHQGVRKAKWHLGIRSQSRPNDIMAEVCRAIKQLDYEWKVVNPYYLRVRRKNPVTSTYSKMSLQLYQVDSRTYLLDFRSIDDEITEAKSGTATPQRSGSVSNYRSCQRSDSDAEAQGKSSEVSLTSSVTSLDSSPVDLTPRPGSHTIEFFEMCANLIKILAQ
T1 sequence (Q9Y478 whole entry partner): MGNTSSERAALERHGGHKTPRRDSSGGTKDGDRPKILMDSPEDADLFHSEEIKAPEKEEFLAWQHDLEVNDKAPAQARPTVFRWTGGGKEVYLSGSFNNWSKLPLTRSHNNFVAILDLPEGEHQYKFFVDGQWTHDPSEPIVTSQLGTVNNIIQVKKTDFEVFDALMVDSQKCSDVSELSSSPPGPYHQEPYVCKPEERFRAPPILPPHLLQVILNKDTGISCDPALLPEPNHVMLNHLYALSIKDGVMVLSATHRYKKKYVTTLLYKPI
T1 sequence (Q9UGJ0 whole entry partner): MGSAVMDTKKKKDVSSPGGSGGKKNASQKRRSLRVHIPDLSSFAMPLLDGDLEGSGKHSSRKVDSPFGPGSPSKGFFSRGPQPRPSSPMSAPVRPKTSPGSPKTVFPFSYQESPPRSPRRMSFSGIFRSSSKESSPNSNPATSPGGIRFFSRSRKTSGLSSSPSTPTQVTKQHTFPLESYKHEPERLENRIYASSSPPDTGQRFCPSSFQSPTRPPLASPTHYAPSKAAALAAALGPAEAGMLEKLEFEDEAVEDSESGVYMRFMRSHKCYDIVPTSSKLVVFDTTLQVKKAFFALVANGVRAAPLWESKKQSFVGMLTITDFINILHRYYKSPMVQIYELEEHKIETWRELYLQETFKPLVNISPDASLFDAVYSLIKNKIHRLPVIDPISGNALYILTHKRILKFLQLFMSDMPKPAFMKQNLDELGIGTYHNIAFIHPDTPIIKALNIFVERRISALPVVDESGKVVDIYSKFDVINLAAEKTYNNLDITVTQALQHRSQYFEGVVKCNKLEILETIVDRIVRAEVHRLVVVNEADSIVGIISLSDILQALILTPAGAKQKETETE
Experimental: The inhibitory effect of serial concentrations of MAK compounds on AMPK Kinase activity was investigated using the highly sensitive AMPK (A1/B1/G2) Kinase Enzyme assay system (Promega, Madison Wis. USA). This system includes a recombinant full-length human AMPK enzyme and a substrate for the enzyme. The experiment was conducted according to the manufacturer's instructions in the provided protocol. Mean values of replicates were calculated in comparison to the control group.

MCF7 spheroids [1] = experiment: Cytotoxicity assay (MTT) in spheroid culture, MCF7; type: cell-based, human; settings: for IC50: Homo sapiens, MCF7, 3D spheroid model, 48 h, MTT; for reduction of spheroid size: MCF7 spheroids treated at IC50 for 48 h, vs control
Experimental: (§1) 1×10^4 cells of each cell line (MCF7 and T47D) were seeded into ultra-low attachment 96 well plate at 37° C. and grown for 48 hours in DMEM media to result in the formation of spheroids. Then, the cells were subjected to the different treatment conditions before performing the assays.
(§2) The cytotoxic effects of MAK compounds were assessed against MCF7 and T47D cell lines using MTT cell viability assay. The cells were treated for 48 hours with different concentrations of each MAK compound and the control cells were subjected to the vehicle (0.1% DMSO). Then, 10% of 5 mg/mL MTT was added to each well containing treated or control cells, and mixture was incubated at 37° C. for 3 hours. After that, the MTT-containing media was replaced with 100 μL DMSO and incubated for 10 minutes at room temperature before measuring the absorbance for each well at 570 nm. According to the measured absorbance, the IC50 was calculated for each compound. All the experiments were performed in biological and experimental replicates.

T47D spheroids [2] = experiment: Cytotoxicity assay (MTT) in spheroid culture, T47D; type: cell-based, human; settings: for IC50: Homo sapiens, T47D, 3D spheroid model, 48 h, MTT; for reduction of spheroid size: T47D spheroids treated at IC50 for 48 h, vs control
Experimental: as §1, §2

T47D spheroids [3] = experiment: Mitochondrial membrane potential assay (JC-1), T47D spheroids; type: cell-based, human; settings: 48 h post treatment at IC50, control 15.67±2.05%
Experimental: The mitochondrial membrane potential was investigated in response to the treatment with MAK compounds. This assay depends on the measurement of the aggregate fluorescence for Tetraethylbenzimidazolylcarbocyanine iodide (JC-1). This cationic dye accumulates in the energized mitochondria, and the increase in aggregate fluorescence indicates mitochondrial […] while the reduction indicates the depolarization state.
After growing the cells and treating them with MAK compound for 48 hours, 2 μM of JC-1 final concentration was added and the mixture was incubated for 1 hour at 37° C. in presence of 5% CO2. Then, the samples were analyzed using flow cytometry. Mean values and standard deviation of replicates were calculated in comparison to the control group.

MCF7 spheroids [4] = experiment: Live and dead assay of tumor spheroids, MCF7; type: cell-based, human; settings: 48 h post treatment, control 10.33±2.40%
Experimental: The Live/Dead assay contains a mixture of two staining fluorescent dyes that label live and dead cells to enable differentiation between them. The cell viability of the cells in response to the treatment with MAK compounds was examined. The cells were grown for 48 hours and treated with MAK compound for additional 48 hours, then Cytox RED solution reagent was added. After incubation at 37° C. under 5% CO2 for 1 hour, the samples were immediately analyzed by flow cytometry. Mean values and standard deviation of replicates were calculated in comparison to the control group.

MCF7 spheroids [5] = experiment: Reactive oxygen species (CellROX) assay, MCF7 spheroids; type: cell-based, human; settings: 48 h treatment, CellROX Green
Experimental: (§3) The CELLROX (Invitrogen) assay was used to measure the level of reactive oxygen species (ROS) in live cells. […] The technique was used to investigate the capability of tested compounds to induce intracellular ROS. After forming the spheroids for 48 hours and treating them for additional 48 hours with MAK compound, spheroids were incubated in culture medium with 500 nM CellROX for 60 minutes at 37° C. in presence of 5% CO2, and the samples were immediately analyzed on flow cytometry using 488-nm excitation for the CellROX® Green.

T47D spheroids [6] = experiment: Reactive oxygen species (CellROX) assay, T47D spheroids; type: cell-based, human; settings: 48 h treatment, CellROX Green
Experimental: as §3

CYP3A4 = molecular target: T2, CYP3A4 (Homo sapiens, UniProt P08684); experiment: Inhibition assay of human CYP450 enzymes, 3A4; type: in vitro ADME
T2 construct: purchased Fisher Scientific; host or cells: insect supersomes
T2 sequence (P08684 whole entry): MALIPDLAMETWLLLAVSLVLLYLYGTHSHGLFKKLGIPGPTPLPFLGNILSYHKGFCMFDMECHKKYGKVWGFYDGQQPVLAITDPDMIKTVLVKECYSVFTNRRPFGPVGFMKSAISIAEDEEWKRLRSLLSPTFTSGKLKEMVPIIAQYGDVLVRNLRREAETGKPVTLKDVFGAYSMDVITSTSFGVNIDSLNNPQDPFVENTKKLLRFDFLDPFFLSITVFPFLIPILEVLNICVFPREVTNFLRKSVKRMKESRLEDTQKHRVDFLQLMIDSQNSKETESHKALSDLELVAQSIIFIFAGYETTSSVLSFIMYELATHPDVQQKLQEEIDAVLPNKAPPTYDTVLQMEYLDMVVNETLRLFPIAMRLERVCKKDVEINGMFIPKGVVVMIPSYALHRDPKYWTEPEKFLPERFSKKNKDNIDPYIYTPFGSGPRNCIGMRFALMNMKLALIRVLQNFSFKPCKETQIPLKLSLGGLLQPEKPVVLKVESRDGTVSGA
Experimental: (§4) The two compounds MAK-1 and MAK-6 were assessed for its ability to inhibit the three major human CYP450 enzymes, 3A4, 2D6 and 2C9. Assays were run in triplicate. Expressed enzymes in insect supersomes (Fisher Scientific, Waltham, Mass.) were used to minimize non-specific binding and membrane partitioning issues (McMasters et al., 2007). The 3A4 assay uses testosterone as a substrate and analysis was performed by LC/MS/MS on a Waters Xevo TQ instrument as described above using positive electrospray ionization. Assay acceptance criteria was 20% for all standards and 25% for the LLOQ. The 2D6 and 2C9 assays use fluorescent substrates (3-[2-(N,N-diethylamino)ethyl]-7-methoxy-4-methylcoumarin for 2D6; 7-methoxy-4-(trifluoromethyl)coumarin for 2C9) and were analyzed on an Envision plate reader. GraphPad® Prism v 5.04 was used for nonlinear fitting of data to generate IC50 values.

CYP2D6 = molecular target: T3, CYP2D6 (Homo sapiens, UniProt P10635); experiment: Inhibition assay of human CYP450 enzymes, 2D6; type: in vitro ADME
T3 construct: purchased Fisher Scientific; host or cells: insect supersomes
T3 sequence (P10635 whole entry): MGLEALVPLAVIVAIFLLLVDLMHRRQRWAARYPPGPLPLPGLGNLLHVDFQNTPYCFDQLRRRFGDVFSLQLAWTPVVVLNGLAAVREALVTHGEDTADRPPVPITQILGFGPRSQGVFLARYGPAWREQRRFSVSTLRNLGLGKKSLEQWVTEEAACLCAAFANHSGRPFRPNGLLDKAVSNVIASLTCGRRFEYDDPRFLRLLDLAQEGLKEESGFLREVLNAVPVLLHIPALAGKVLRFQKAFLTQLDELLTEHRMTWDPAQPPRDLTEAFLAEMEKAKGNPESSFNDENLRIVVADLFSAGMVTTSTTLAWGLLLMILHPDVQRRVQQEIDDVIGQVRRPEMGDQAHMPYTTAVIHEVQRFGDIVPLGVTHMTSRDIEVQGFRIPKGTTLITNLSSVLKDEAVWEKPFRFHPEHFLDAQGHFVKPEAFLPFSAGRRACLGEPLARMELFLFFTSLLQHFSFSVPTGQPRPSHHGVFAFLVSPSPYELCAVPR
Experimental: as §4

CYP2C9 = molecular target: T4, CYP2C9 (Homo sapiens, UniProt P11712); experiment: Inhibition assay of human CYP450 enzymes, 2C9; type: in vitro ADME
T4 construct: purchased Fisher Scientific; host or cells: insect supersomes
T4 sequence (P11712 whole entry): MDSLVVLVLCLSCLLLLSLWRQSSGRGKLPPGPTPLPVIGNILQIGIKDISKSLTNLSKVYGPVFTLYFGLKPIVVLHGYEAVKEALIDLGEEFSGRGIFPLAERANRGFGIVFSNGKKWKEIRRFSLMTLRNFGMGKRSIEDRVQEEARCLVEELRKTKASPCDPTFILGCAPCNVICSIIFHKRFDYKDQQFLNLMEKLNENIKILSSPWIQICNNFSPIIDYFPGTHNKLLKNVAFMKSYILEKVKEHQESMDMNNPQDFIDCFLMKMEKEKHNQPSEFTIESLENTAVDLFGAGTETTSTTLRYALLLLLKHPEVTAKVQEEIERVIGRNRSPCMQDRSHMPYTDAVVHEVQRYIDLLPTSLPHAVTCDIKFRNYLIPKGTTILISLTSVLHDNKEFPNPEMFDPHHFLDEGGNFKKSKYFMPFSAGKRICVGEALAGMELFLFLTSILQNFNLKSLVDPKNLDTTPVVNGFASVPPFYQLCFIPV
Experimental: as §4

| Structure (SMILES) | decrease of phospho-protein AMPK existence (AMPK (phospho-protein); compound at 6 μM) | IC50 (AMPK (A1/B1/G2)) | IC50 (MCF7 spheroids [1]) | reduction of spheroid size (MCF7 spheroids [1]) | IC50 (T47D spheroids [2]) | reduction of spheroid size (T47D spheroids [2]) | depolarized cells (mitochondrial membrane), mean±SEM (T47D spheroids [3]) | dead rate (dead cells), mean±SEM (MCF7 spheroids [4]) | ROS level, treatment vs control (MCF7 spheroids [5]) | ROS level, treatment vs control (T47D spheroids [6]) | inhibition of CYP3A4 (CYP3A4; concentrations up to 10 μM) | inhibition of CYP2D6 (CYP2D6; concentrations up to 10 μM) | inhibition of CYP2C9 (CYP2C9; concentrations up to 10 μM) | decrease of phospho-protein AMPK existence (AMPK (phospho-protein); compound at 8 μM) | inhibition of CYP3A4 (CYP3A4; concentration not given) | inhibition of CYP2D6 (CYP2D6; concentration not given) | inhibition of CYP2C9 (CYP2C9; concentration not given) |
| --- | --- | --- | --- | --- | --- | --- | --- | --- | --- | --- | --- | --- | --- | --- | --- | --- | --- |
| COc1cccc(C(=O)Nc2ccc(CC(=O)NCc3ccccc3)cc2)c1 [MAK-1, N-(4-(2-(benzylamino)-2-oxoethyl)phenyl)-3-methoxybenzamide] | 61.8% | 4.8 nM | 23.81 ± 0.16 µM | noticeable reduction | 13.9 ± 0.095 µM | noticeable reduction | 36.77±1.17% | 36.33±0.88% | 10% | 4% | no inhibition | no inhibition | no inhibition |  |  |  |  |
| O=C(Cc1ccc(NC(=O)c2cccc(Cl)c2)cn1)NCc1ccccc1 [MAK-6, N-(6-(2-(benzylamino)-2-oxoethyl)pyridin-3-yl)-3-chlorobenzamide] |  | 5.6 nM | 22.9 ± 0.245 µM | noticeable reduction | 7.29 ± 0.085 µM | noticeable reduction | 32.77±0.54% | 34.27±0.49% | 6% | 6% |  |  |  | 92.1% | did not display any inhibitory activity | did not display any inhibitory activity | did not display any inhibitory activity |
